Entries after “also recorded” stand apart in the source; their conditions may differ.
What was measured:
[1] = test system: corticospinal tract axons; experiment: Analysis of axon swellings in spinal cords of EAE mice; type: in vivo, mouse; conditions: EAE mice treated during the chronic phase, FIG. 7A
Procedure: A: Histological analysis of corticospinal tract axons in spinal cords of EAE mice treated during the chronic phase of the disease.
EAE experiments were performed by immunizing YFP-H mice, that express yellow fluorescent protein in corticospinal neurons, with MOG35-55. Mice were treated with IL-4 or PBS as described above. At the last treatment day, the mice were sacrificed with an overdose of anaesthesia and transcardially perfused with 4% paraformaldehyde. Spinal cords were dissected and further processed for cryosectioning. YFP-labelled corticospinal tract axons were photographed using the Keyence BZ-9000 microscope. For quantification of axon swellings, thresholds were set in ImageJ so that stained pixels were highlighted. Thresholded swellings were counted using the ImageJ plug-in “particle analysis”.

[2] = test system: dissociated cortical neurons; experiment: Phosphorylation of signalling molecules (Western blot); type: cell-based, mouse; conditions: 50 ng/ml, 10 min treatment, FIG. 5B
Procedure: A: Cortical outgrowth in response to 50 ng/ml IL-4, Link4, or Link13, compared to PBS control. The increase in growth at 48 h was calculated over the basal (untreated) growth at 24 h. B: Effects on phosphorylation of signalling molecules after 10 min treatment of dissociated cortical neurons with IL-4, Link4 or PBS.
Neonatal (P1-3) cortex explants were dissected from 250 μm thick vibratome (HM650V, Thermo Fisher) sections from Bregma 0 to −1.5 (motor cortex). Cortical layer V was micro-dissected, plated on poly-D-lysine (0.5 mg/ml) and laminin (1 mg/ml)-coated glass coverslips and grown for 24 h in neurobasal medium with 2% horse serum, 2% B27, 1% glutamax and 0.5% penicillin/streptomycin. Explants were treated for 48 h with rIL-4 (50 ng/ml), Link4 (50 ng/ml), Link13 (50 ng/ml) or PBS. Axon length was assessed using Adobe Photoshop by measuring the distance of the 40 longest axons, corrected for the initial growth at 24 h. […]
For Western blotting, the following primary antibodies were used: anti-IRS1 (EMD Millipore), anti-phospho-IRS1 (Cell Signaling Technology), anti-MAPK and anti-phospho-MAPK (Cell Signaling Technology), anti-PKCγ (Santa-Cruz), anti-phospho-PKCγ (Biozol). DyLight […]-coupled secondary antibodies were used for quantitative analysis of the proteins using the Li-Cor Odyssey FC imaging system (Li-Cor Bioscience). […]

[3] = test system: experimental autoimmune encephalomyelitis (EAE) mice; experiment: EAE clinical score, treatment during the chronic phase; type: in vivo, mouse; conditions: chronic phase of EAE, vs PBS
Procedure: To test whether Link4 has similar effects to IL-4 in vivo, two pilot experiments were performed. In the first experiment (FIG. 3A), B16 mice were subjected to EAE and treated with IL-4, Link4, Ph8 and PBS (n=6-7 animals per group) via lumbar intrathecal injection directly into the cerebrospinal fluid (CSF) every other day for 14 days, in the chronic phase of the disease starting from day 5 after the first disease peak (grey bar). […] For better clinical translation, the treatment was then switched to nasal treatment with IL-4 and Link4 (FIG. 3B; 2 pooled experiments, n=15-16 per group). Nasally applied treatments can enter the brain through the cribriform plate, where olfactory nerve fibers cross through the bone, resulting in a connection between the roof of the nasal cavity and the brain (C. F. Xiao, F. J. Davis, B. C. Chauhan, K. L. Viola, P. N. Lacor, P. T. Velasco, W. L. Klein, and N. B. Chauhan, Brain transit and ameliorative effects of intranasally delivered anti-amyloid-beta oligomer antibody in 5XFAD mice. J Alzheimers Dis 35, 777-788 (2013)). Again, both IL-4 and Link4 treatments were beneficial.
For active EAE, female 9-10-weeks-old C57BI6 mice were immunized as previously described (M. Paterka, J. O. Voss, J. Werr, E. Reuter, S. Franck, T. Leuenberger, J. Herz, H. Radbruch, T. Bopp, V. Siffrin, and F. Zipp, Dendritic cells tip the balance towards induction of regulatory T cells upon priming in experimental autoimmune encephalomyelitis. J Autoimmun 67, 108-114 (2017)) by subcutaneous injection of 200 μg myelin oligodendrocyte […] 35-55 (MOG35-55) mixed with complete Freund adjuvant (CFA). Following the MOG35-55 immunization 400 ng pertussis toxin (PTX) was administered intraperitoneally at the day of immunizaton and after 24 h. Clinical signs were scored using the following parameters:
Treatment with rIL-4 (1 μg, Peprotech), Ph8 (1 μg, custom synthesized, Schafer N), Link4 (1 μg, custom synthesized, Schafer N) or vehicle (PBS) was performed during the chronic phase of the disease models by lumbar intrathecal injection (R. Lu and A. Schmidtko, Direct intrathecal drug delivery in mice for detecting in vivo effects of cGMP on pain processing. Methods Mol Biol 1020, 215-221 (2013)) or nasal application of IL-4 and Link4 was performed according to published procedures (C. F. Xiao, F. J. Davis, B. C. Chauhan, K. L. Viola, P. N. Lacor, P. T. Velasco, W. L. Klein, and N. B. Chauhan, Brain transit and ameliorative effects of intranasally delivered anti-amyloid-beta oligomer antibody in SXFAD mice. J Alzheimers Dis 35, 777-788 (2013)). Mice were pre-trained to avoid stress and held at a 45 degree angle to apply IL-4 solution (1 μg, Peprotech) to the nostrils using a pipette tip.

Sequence: RARSEIIGIGSKSIMQMDY (listed as Mus musculus) [Link4]
- number of axon swellings [1]: significantly reduced
- phosphorylation of signalling molecules (neuronal signalling) [2]: same neuronal signalling effects as IL-4
- clinical score ([3]; lumbar intrathecal injection, 1 μg every other day for 14 days): significant improvement in the clinical score; also recorded: significant amelioration of the clinical score
- clinical score ([3]; lumbar intrathecal injection, 1 μg every other day for 14 days, listed as mouse Link4): reducing disease symptoms
- clinical score ([3]; nasal application): significant improvement in the clinical score; also recorded: beneficial

Reference: US20200377568A1, “Novel IL-4-/IL-13-derived peptide compounds for the treatment or prevention of neurodegenerative or neuroinflammatory diseases” (Universitätsmedizin der Johannes Gutenberg-Universität Mainz, priority 2018, published 2020)
